Reference: patent publication US5565475A, “Method of treating urinary bladder dysfunctions with 3-tetrahydropyridine derivatives” (priority 1994, dated 1996)
Where a name gives a salt, the structure may show the parent alone. Blank lines part the entries; values can stand above or below the compound they belong to.

Experiments:
[1] = tested on: vesico-anal reflex; assay: Acetic acid-induced vesico-anal reflex (model of visceral nociception); type: in vivo, rat (female Sprague-Dawley); conditions: for duration of the increase in vesico-anal reflex activity / increases in vesico-anal reflex activity when administered alone: atropine 30 μg/kg-1 mg/kg, oxybutynin 1-3 mg/kg, administered alone
Description: The model of visceral nociception that was used in the testing of the compounds according to the method of this invention is the acetic acid-induced vesico-anal reflex. This model utilizes infusion of a dilute acetic acid solution into the urinary bladder as a nociceptive stimulus and records increases in electromyographic (EMG) activity from the anal sphincter as the primary measured response. Anal sphincter EMG activity is composed of 2 components, 1) a small, long duration action potential (ca. 50 msec) that is sensitive to muscarinic antagonists and 2) a larger, short duration action potential (ca. 2 msec) that is sensitive to neuromuscular blocking agents (i.e. mediated by nicotinic receptors). These components represent rectal longitudinal smooth muscle activity and external anal sphincter striated muscle activity, respectively, and have been described in detail in a separate publication (Muhlhauser reference). It is the striated anal sphincter muscle activity that 1) is associated with bladder activity, 2) is increased by acetic acid infusion into the bladder, and 3) represents the vesico-anal reflex. The acetic acid-inducedincrease in vesico-anal reflex activity is maintained for over 2 hours in 95% of the animals.
In the acetic acid-induced vesico-anal reflex model, bladders of urethane-anesthetized rats were cannulated through the dome for continuous-infusion cystometrogram recordings. EMG electrodes were inserted into the anus and the peri-urethral musculature for recording anal and urethral sphincteric activity, respectively. Infusion of 0.5% acetic acid into the bladder or urethra produced modest increases in bladder contractile activity and urethral sphincter activity and pronounced increases in anal sphincter activity (i.e. an increase in the vesico-anal reflex). […] These studies indicate that a tonically-active, endogenous, cholinergic muscarinic system plays a role in the suppression of visceral nociception arising from the lower urinary tract.
Female Sprague-Dawley rats (200-300 g) were anesthetized with 1.4 g/kg urethane (0.7 g administered i.p. and 0.7 g administered s.c.), which was supplemented with 1% isoflurane during surgery. The urinary bladder was exposed through an abdominal incision and cannulated with PE60 tubing attached to a 22 gauge needle that was inserted through the dome of the bladder. A purse-string suture (5-0 silk) through the bladder held the needle in place. The cannula was connected to an infusion pump (Harvard Apparatus, ratus, Natick Mass.) and a pressure transducer (Statham Gould, Cleveland, Ohio) through a 3 way stopcock to allow bladder filling and pressure measurement, respectively. The abdominal incision was covered with plastic wrap. A small incision was made in the perineum to allow placement of EMG electrodes into the periurethral musculature. EMG electrodes were also placed into the muscular tissue of the anus. EMG electrodes were connected to preamplifiers (Grass P511, Quincey, Mass.) with low and high pass filters set at 10 and 3000 HZ. […] A catheter inserted into the carotid artery was connected to a pressure transducer (Statham Gould, Cleveland, Ohio) to record arterial pressure, which was used to trigger a heart rate meter (Biotach, Gould, Cleveland, Ohio). A catheter was inserted into the trachea to allow for artificial respiration and monitoring of expired CO2 (Sensor Medics, Anaheim, Calif.). EMG potentials, rate meter output, bladder and arterial pressure, heart rate, and expired CO2 measurements were recorded on a physiograph (Gould, TA4000, Cleveland, Ohio) and stored on an 8-channel digital audio tape recorder (SONY PC-108M, Tokyo, Japan).
After establishing control levels of anal and urethral activity, compounds were administered intravenously. […]

[2] = target: muscarinic receptors; assay: Inhibition of 3H-oxotremorine-M binding to muscarinic receptors (rat cerebral cortical membranes); set-up: species or system rat (male Sprague-Dawley); conditions: 3 nM 3H-oxotremorine-M, pH 7.4, 15 minutes at 25° C., read-out: Inhibition of 3H-Oxo
Experimental: The affinity of the compounds for the muscarinic receptors was determined using the non-selective agonist ligand, ^3 H-oxotremorine-M. Birdsdall N. J. M., Hulme E. C., and Burgen A. S. V., "The Character of Muscarinic Receptors in Different Regions of the Rat Brain", 207 Proc. Roy. Soc. 1 (London, Series B, 1980). Each compound was tested to determine the affinity of the compound for the muscarinic receptors using the following procedure.
For in vitro binding, male Sprague-Dawley (Harlan Sprague-Dawley, Indianapolis, IN) rats weighing from about 100 to about 150 grams each were sacrificed by decapitation. The brains were quickly removed and the cerebral cortex were dissected from the brain. The cerebral cortex tissue was homogenized in 10 volumes of 0.32M sucrose and homogenized for about 10 minutes at about 1000×g. The supernatant was centrifuged at about 12,000×g for about 10 minutes and the resulting pellet was resuspended in 20 mM tris-Cl, pH 7.4. The resuspended pellet was centrifuged again for about 10 minutes at about 50,000×g. The resulting homogenate was preincubated for about 10 minutes at about 25° C. and centrifuged again for about 10 minutes at about 50,000×g. The pellet was resuspended at 1 gram of pellet per 3 ml of buffer and frozen at about -80° C. until used.
The aforementioned homogenates mixture was incubated for about 15 minutes at about 25° C. and then the homogenates were filtered through glass filters (Whatman, GF/C) with vacuum. The filters were washed 3 times with about 2 ml of cold tris-Cl buffer, and placed in scintillation vials containing about 10 ml of scintillation fluid (Ready Protein+, Beckman, Fullerton, Calif.). Radioactivity trapped on the filters was determined by liquid scintillation spectrometry. Nonspecific binding was determined using 1 μM atropine.

Structure (SMILES): C[N+]1(C)[C@@H]2C[C@@H](OC(=O)[C@H](CO)c3ccccc3)C[C@H]1[C@@H]1O[C@@H]12 [Scopolamine methyl bromide]
blocking of the cholinergic agonist-mediated inhibition of the vesico-anal reflex ([1]; 1-30 ug/kg): ineffective at blocking the cholinergic agonist-mediated inhibition of the vesico-anal reflex

IC50 [2]: 22 nM
Structure (SMILES): COc1nsnc1C1=CCCN(C)C1 [Compound 1, 1,2,5,6-Tetrahydro-3-(3-methoxy-1,2,5-thiadiazol-4-yl)-1-methylpyridine oxalate]

Structure (SMILES): CNC(=O)Oc1ccc2c(c1)[C@]1(C)CCN(C)[C@@H]1N2C [physostigmine]
suppression of the VA reflex by cholinesterase inhibitors ([1]; rat, in vivo): suppressed the VA reflex in a dose-dependent, atropine-sensitive manner

IC50 [2]: 2.7 nM
Structure (SMILES): C=CCCCCOc1nsnc1C1=CCCN(C)C1 [Compound 33, 3-(3-(5-Hexenyloxy)-1,2,5-thiadiazol-4-yl)-1,2,5,6-tetrahydro-1-methylpyridine oxalate]

Structure (SMILES): CCN(CC)CC#CCOC(=O)C(O)(c1ccccc1)C1CCCCC1 (stereo not drawn) [oxybutynin]
duration of the increase in vesico-anal reflex activity [1]: 15 min
increases in vesico-anal reflex activity when administered alone [1]: robust, but transient

IC50 [2]: 5.7 nM
Structure (SMILES): CCOc1nsnc1C1=CCCN(C)C1 [Compound 2, 3-(3-Ethoxy-1,2,5-thiadiazol-4-yl)-1,2,5,6-tetrahydro-1-methylpyridine oxalate]

IC50 [2]: 1.6 nM
Structure (SMILES): CCCOc1nsnc1C1=CCCN(C)C1 [Compound 3, 1,2,5,6-Tetrahydro-1-methyl-3-(3-propoxy-1,2,5-thiadiazol-4-yl)pyridine oxalate]

Structure (SMILES): O=C1CCCN1CC#CCN1CCCC1 [Oxotremorine]
reversal of the inhibition of vesico-anal reflex activity by atropine ([1]; atropine 0.3-1 mg/kg): reversed by atropine
vesico-anal reflex activity (inhibited to % of control) ([1]; oxotremorine 1-30 μg/kg iv, test compounds 0.01-1.0 mg/kg iv): 10 % of control
inhibition of vesico-anal reflex activity ([1]; oxotremorine 1-30 μg/kg iv, test compounds 0.01-1.0 mg/kg iv, urethane-anesthetized rats, 0.5% acetic acid): dose-dependent inhibition of vesico-anal reflex activity

Structure (SMILES): CCCCOc1nsnc1C1=CCCN(C)C1 [Compound 4, 3-(3-Butoxy-1,2,5-thiadiazol-4-yl)-1,2,5,6-tetrahydro-1-methylpyridine oxalate]
IC50 [2]: 2 nM

IC50 [2]: 0.9 nM
Structure (SMILES): CCCSc1nsnc1C1=CCCN(C)C1 [Compound 47, 3-(3-Propylthio-1,2,5-thiadiazol-4-yl)-1,2,5,6-tetrahydro-1-methylpyridine oxalate]

Structure (SMILES): CN1[C@@H]2CC[C@H]1C[C@@H](OC(=O)C(CO)c1ccccc1)C2 (stereo partly drawn) [atropine]
duration of the increase in vesico-anal reflex activity [1]: 15 min
increases in vesico-anal reflex activity when administered alone [1]: robust, but transient
